According to patent US20150238626A1, “RECEPTOR LIGAND LINKED CYTOTOXIC MOLECULES” (ONTOCHEM GMBH, priority 2012, published 2015):
Where two headings read alike, the source gives them in different places.

Columns and labels:
MDA-MB-468 = assay: Fluorometric resazurin-based cell proliferation assay, MDA-MB-468; details: Homo sapiens, read-out: IC50 MDA-MB-468
Procedure: (§1) To evaluate the anti-proliferative and cytotoxic effect, respectively, of the compounds, a fluorometric resazurin-based cell viability assay was used. Human cancer and non-cancer cell lines (primarily breast cancer) were seeded with low densities into 96-well plates (1,500-20,000 cells per well), and were allowed to adhere for 24 h. Subsequently, the compounds—dissolved to appropriate concentrations in medium—were added to the cells and incubated for 4-72 h. In case the compound treatment was shorter than 72 h, the incubation solution was discarded, cells were rinsed once with cell culture medium and were allowed to proliferate in compound-free medium until 72 h were reached. Subsequently, medium was replaced by 50 μM resazurin in medium, and the cells were incubated for 2 h. Finally, the conversion of resazurin to resorufin by viable, metabolically active cells was measured using a Synergy 2 multiwell plate reader (BioTek, Bad Friedrichshall, Germany) with 540 nm excitation and 590 nm emission filter setting.
(§2) The cytostatic/cytotoxic effects of the new molecules according to this invention were evaluated by using a fluorometric cell proliferation assay. A panel of cell lines (most of them breast cancer) were treated for 4-72 hours with compound. The fluorometric read-out for cell viability was done after 72 hours in any case.

MDA-MB-231 = assay: Fluorometric resazurin-based cell proliferation assay, MDA-MB-231; details: Homo sapiens
Procedure: as §1, §2

MCF-7 = assay: cells; format: cell-based, human; details: 72 h compound treatment
Procedure: as §1, §2

184B5 = assay: Fluorometric resazurin-based cell proliferation assay, 184B5; details: Homo sapiens, 72 h compound treatment
Procedure: as §1, §2

[1] = tested on: breast cancer cell lines (MCF-7, MDA-MB-468); assay: Proteome analysis by SILAC; format: cell-based, human; details: various breast cancer cell lines
Procedure: SILAC was used for the examination of compound-mediated protein deregulations in the cells. In a first step, the incorporation rate of ^13C-labeled L-arginine (“heavy” medium) was determined for the used cell lines.
After finished incubation, the cells were harvested and lysed. […] The gel was cut into gel slices and in-gel digested with trypsin. The samples were measured with a LTQ Orbitrap Velos (Thermo Scientific) coupled with a nano-HPLC. The resulting mass spec-data were analyzed using the MaxQuant software.

[2] = tested on: caspases 3 and 7 in breast cancer cell lines; assay: Apoptosis assay, effector caspases 3 and 7; format: cell-based, human; details: several breast cancer cell lines
Procedure: Compound-mediated induction of apoptosis was examined using comercially available luminescent caspase assays (Promega, Mannheim, Germany). Human cancer and non-cancer cell lines (primarily breast cancer) were seeded with densities depending on the incubation time into 96-well plates (5,000-20,000 cells per well for 48 h incubations; 15,000-40,000 cells per well for 16-24 h incubations), and were allowed to adhere for 24 h. Subsequently, the compounds—dissolved to appropriate concentrations in medium—were added to the cells in 70 μL per well. Cells were incubated for 16-48 h under standard growth conditions. For the last hour of incubation, 10 μL/well of 8× resazurin solution (400 μM) were added in order to multiplex the caspase activities with the cell number/cell viability. When the incubation was finished, conversion of resazurin to resorufin was measured as described above. […] Luminescence read-out was done using a Synergy 2 multiwell plate reader (BioTek, Bad Friedrichshall, Germany).
Cells were treated with the indicated compound concentrations for 24 h (A, C) and 48 h (B, D), respectively. Subsequently, activation of effector caspases 3/7 was measured using a luminescence-based caspase-Glo™ assay kit (Promega), and cell viability was fluorimetrically detected using a Resazurin-based cell viability assay. […]

T-47D = assay: Fluorometric resazurin-based cell proliferation assay, T-47D; set-up: species or system human; details: for IC50: Homo sapiens, T47D, read-out: IC50 T-47D
Procedure: as §1, §2

HT-29 = assay: Fluorometric resazurin-based cell proliferation assay, HT-29; set-up: species or system human; details: 72 h compound treatment
Procedure: as §1, §2

[3] = tested on: panel of cell lines (most of them breast cancer); assay: Cell proliferation assay, statements over the panel of cell lines; format: cell-based, human; details: 72 h treatment
Procedure: as §1, §2

HEK293 = assay: Fluorometric resazurin-based cell proliferation assay, HEK293; details: Homo sapiens, 72 h compound treatment
Procedure: as §1, §2

SK-N-MC = assay: Fluorometric resazurin-based cell proliferation assay, SK-N-MC; details: Homo sapiens, 72 h compound treatment
Procedure: as §1, §2

[4] = MDA-MB-231, 72 h, read-out: IC50 MDA-MB-231

Structure (SMILES) | IC50 (MDA-MB-468; MDA-MB-468, 72 h) | IC50 (MDA-MB-231; [4]) | IC50 (MCF-7; Homo sapiens, MCF7) | IC50 (184B5) | IC50 (T-47D; 72 h) | also measured
CCC(C)[C@H](NC(=O)[C@H]1CCCCN1C)C(=O)N(C)[C@H](C[C@@H](OC(C)=O)c1nc(C(=O)N[C@@H](Cc2ccc(F)cc2)C[C@H](C)C(=O)NCCSSc2ccccn2)cs1)C(C)C (stereo partly drawn) [OC 169] | 18.7 nM | 31 nM | 18.4 nM | 26.1 nM | 18.7 nM | regulation of protein expression (SILAC) [1]: comparable protein regulations; induction of apoptosis (caspase 3/7 activity) [2]: induction of apoptotic cell death mechanisms
CCC(C)[C@H](NC(=O)[C@H]1CCCCN1C)C(=O)N(C)[C@H](C[C@@H](OC(C)=O)c1nc(C(=O)N[C@@H](Cc2ccc(F)cc2)C[C@H](C)C(=O)O)cs1)C(C)C (stereo partly drawn) [OC 501] | 3.6 nM | 7.2 nM | 4.1 nM |  | 5.4 nM | IC50 (HT-29; Homo sapiens, HT-29): 1.2 nM
CCCO[C@H](C[C@H](C(C)C)N(C)C(=O)[C@@H](NC(=O)[C@H]1CCCCN1C)C(C)CC)c1nc(C(=O)N[C@@H](Cc2ccccc2)C[C@H](C)C(=O)O)cs1 (stereo partly drawn) [OC 503] | 8.2 nM | 10.9 nM | 4.2 nM |  | 8.3 nM | IC50 (HT-29; Homo sapiens, HT-29): 0.8 nM
CCC(C)[C@H](NC(=O)[C@H]1CCCCN1C)C(=O)N(C)[C@H](C[C@@H](OC(C)=O)c1nc(C(=O)N[C@@H](Cc2ccccc2)C[C@H](C)C(=O)O)cs1)C(C)C (stereo partly drawn) [OC 509] |  |  | 0.34 nM |  |  | 
CCCO[C@H](C[C@H](C(C)C)N(CCC)C(=O)[C@@H](NC(=O)[C@H]1CCCCN1C)C(C)CC)c1nc(C(=O)N[C@@H](Cc2ccc(O)cc2)C[C@H](C)C(=O)O)cs1 (stereo partly drawn) [OC 515] |  |  |  | 0.09 nM | 0.09 nM | higher efficacy compared to the reference compound Paclitaxel (T-47D; T-47D cells, 72 h treatment): up to 300 fold
CCCO[C@H](C[C@H](C(C)C)N(CCC)C(=O)[C@@H](NC(=O)[C@H]1CCCCN1C)C(C)CC)c1nc(C(=O)N[C@@H](Cc2ccc(O)cc2)C[C@H](C)C(=O)NCCSSc2ccccn2)cs1 (stereo partly drawn) [OC 516] |  |  |  |  | 0.2 nM | 
CCC(C)[C@H](NC(=O)[C@H]1CCCCN1C)C(=O)N(COC(=O)CC(C)C)[C@H](C[C@@H](OC(C)=O)c1nc(C(=O)N[C@@H](Cc2ccc(O)cc2)C[C@H](C)C(=O)NCCSSc2ccccn2)cs1)C(C)C (stereo partly drawn) [OC 517] | 1 nM | 1.6 nM | 1.9 nM | 6.2 nM | 4.9 nM | activity compared to Paclitaxel [3]: several folds more active than Paclitaxel; IC50 (HEK293): 5.9 nM; IC50 (SK-N-MC): 1.1 nM
CC(=O)O[C@H]1C(=O)[C@@]2(C)[C@H]([C@H](OC(=O)c3ccccc3)[C@]3(O)C[C@H](OC(=O)[C@H](O)[C@@H](NC(=O)c4ccccc4)c4ccccc4)C(C)=C1C3(C)C)[C@]1(OC(C)=O)CO[C@@H]1C[C@@H]2O [Paclitaxel, reference compound] |  |  | 25.5 nM |  |  | IC50 (MDA-MB-468; MDA-MB-468, 72 h compound treatment): 31.1 nM; IC50 (MDA-MB-231; MDA-MB-231, read-out: IC50 MDA-MB-231, 72 h compound treatment): 35.1 nM; IC50 (T-47D; 72 h compound treatment): 30.7 nM
CC[C@H](C)[C@H](NC(=O)[C@H]1CCCCN1C)C(=O)N(COC(=O)CC(C)C)[C@H](C[C@@H](OC(C)=O)c1nc(C(=O)N[C@@H](Cc2ccc(O)cc2)C[C@H](C)C(=O)O)cs1)C(C)C [Tubulysin A, reference compound] |  |  |  |  |  | IC50 (MCF-7): 0.6 nM; IC50 (HT-29): 0.75 nM
